Toxic doses and inconclusive results are not listed. Cut-off read from the data, not from the text of the source: active = T/C of 150% or more; inactive = T/C below 125%.
System: L1210 leukemia ip in BDF1 mice, survival T/C
Experiment: NCI In Vivo Anticancer Drug Screen. Data for tumor model L1210 Leukemia (intraperitoneal) in B6D2F1 (BDF1) mice
Conditions: endpoint: mean survival time, higher = longer survival
Outline: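 Survival endpoint. Drug-treated group vs vehicle group, expressed as T divided by C. Tumor passaged by transplantation.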

[1] = dose: 100.0 mg/kg/injection, schedule: Q01DX001 (ip), vehicle: acetone
[2] = dose: 100.0 mg/kg/injection, schedule: Q04DX003 (ip), vehicle: saline
[3] = dose: 200.0 mg/kg/injection, schedule: Q01DX001 (ip), vehicle: acetone
[4] = dose: 200.0 mg/kg/injection, schedule: Q04DX003 (ip), vehicle: saline
[5] = dose: 400.0 mg/kg/injection, schedule: Q01DX001 (ip), vehicle: acetone
[6] = dose: 100.0 mg/kg/injection, schedule: Q01DX001 (ip), vehicle: carboxymethylcellulose (CMC)
[7] = dose: 200.0 mg/kg/injection, schedule: Q01DX001 (ip), vehicle: carboxymethylcellulose (CMC)
[8] = dose: 400.0 mg/kg/injection, schedule: Q01DX001 (ip), vehicle: carboxymethylcellulose (CMC)
[9] = dose: 50.0 mg/kg/injection, schedule: Q01DX001 (ip), vehicle: saline
[10] = dose: 100.0 mg/kg/injection, schedule: Q01DX001 (ip), vehicle: saline
[11] = dose: 200.0 mg/kg/injection, schedule: Q01DX001 (ip), vehicle: saline
[12] = dose: 400.0 mg/kg/injection, schedule: Q01DX001 (ip), vehicle: saline
[13] = dose: 100.0 mg/kg/injection, schedule: Q01DX009 (ip), vehicle: saline with Tween-80
[14] = dose: 100.0 mg/kg/injection, schedule: Q04DX003 (ip), vehicle: Klucel (hydroxypropylcellulose) (HPC)
[15] = dose: 200.0 mg/kg/injection, schedule: Q04DX003 (ip), vehicle: Klucel (hydroxypropylcellulose) (HPC)
[16] = dose: 400.0 mg/kg/injection, schedule: Q04DX003 (ip), vehicle: Klucel (hydroxypropylcellulose) (HPC)
[17] = dose: 100.0 mg/kg/injection, schedule: Q01DX009 (ip), vehicle: Klucel (hydroxypropylcellulose) (HPC)
[18] = dose: 200.0 mg/kg/injection, schedule: Q01DX009 (ip), vehicle: Klucel (hydroxypropylcellulose) (HPC)
[19] = dose: 400.0 mg/kg/injection, schedule: Q01DX009 (ip), vehicle: Klucel (hydroxypropylcellulose) (HPC)
[20] = dose: 100.0 mg/kg/injection, schedule: Q04DX002 (ip), vehicle: Klucel (hydroxypropylcellulose) (HPC)
[21] = dose: 200.0 mg/kg/injection, schedule: Q04DX002 (ip), vehicle: Klucel (hydroxypropylcellulose) (HPC)

Measured: T/C

O=C1C=C2CCN(Cc3ccccc3)CC2CC1 (stereo not given)
inactive: [1] 97 % of control | [2] 104 % of control | [3] 102 % of control | [4] 101 % of control | [5] 98 % of control

O=C1CCC(=O)N1c1ccc(Br)cc1
inactive: dose: 50.0 mg/kg/injection, schedule: Q01DX001 (ip), vehicle: carboxymethylcellulose (CMC) 102 % of control | [6] 102 % of control | [7] 98 % of control | [8] 98 % of control

CC(=O)CC(=O)CC(C)C
inactive: [9] 105 % of control | [10] 103 % of control | [11] 100 % of control | [12] 94 % of control

CC(Cc1ccccc1)N(C)C (stereo not given)
inactive: dose: 12.5 mg/kg/injection, schedule: Q01DX001 (ip), vehicle: saline 102 % of control | dose: 25.0 mg/kg/injection, schedule: Q01DX001 (ip), vehicle: saline 94 % of control | dose: 25.0 mg/kg/injection, schedule: Q04DX003 (ip), vehicle: saline 101 % of control | [9] 94 % of control | dose: 50.0 mg/kg/injection, schedule: Q04DX003 (ip), vehicle: saline 101 % of control

CCCCC(SC(CC)(C(N)=O)c1ccccc1)C(=O)O (stereo not given)
inactive: [6] 90 % of control | [7] 102 % of control | [8] 90 % of control

O=C(Nc1ccc([N+](=O)[O-])cc1Cl)Sc1ccccc1O
inactive: [13] 104 % of control | dose: 200.0 mg/kg/injection, schedule: Q01DX009 (ip), vehicle: saline with Tween-80 104 % of control | dose: 400.0 mg/kg/injection, schedule: Q01DX009 (ip), vehicle: saline with Tween-80 86 % of control

c1ccc2c(c1)NC(C1Nc3ccccc3S1)S2 (stereo not given)
inactive: [1] 90 % of control | [14] 93 % of control | [3] 88 % of control | [15] 93 % of control | [5] 88 % of control | [16] 90 % of control

CC[S][Pb]([c]1ccccc1)([c]1ccccc1)[c]1ccccc1
inactive: dose: 12.5 mg/kg/injection, schedule: Q04DX002 (ip), vehicle: Klucel (hydroxypropylcellulose) (HPC) 103 % of control

COc1ccc(COC(=O)CN2C(=O)c3ccccc3C2=O)cc1
inactive: [17] 98 % of control | [14] 95 % of control | [18] 107 % of control | [15] 95 % of control | [19] 98 % of control | [16] 93 % of control

O=C(Nc1cccc2c(NC(=O)c3ccccc3)cccc12)c1ccccc1
inactive: dose: 100.0 mg/kg/injection, schedule: Q01DX001 (ip), vehicle: saline with Tween-80 92 % of control | dose: 200.0 mg/kg/injection, schedule: Q01DX001 (ip), vehicle: saline with Tween-80 91 % of control | dose: 400.0 mg/kg/injection, schedule: Q01DX001 (ip), vehicle: saline with Tween-80 89 % of control

CCN(C(=O)Nc1ccc(Cl)cc1)c1ccccc1C
inactive: dose: 100.0 mg/kg/injection, schedule: Q04DX003 (ip), vehicle: saline with Tween-80 91 % of control | dose: 200.0 mg/kg/injection, schedule: Q04DX003 (ip), vehicle: saline with Tween-80 93 % of control

CNC(=O)OCc1c(COC(=O)NC)c(-c2ccc(Cl)c(Cl)c2)n2c1CCC2
inactive: dose: 12.5 mg/kg/injection, schedule: Q01DX009 (ip), vehicle: Klucel (hydroxypropylcellulose) (HPC) 106 % of control | dose: 25.0 mg/kg/injection, schedule: Q01DX009 (ip), vehicle: Klucel (hydroxypropylcellulose) (HPC) 109 % of control | dose: 50.0 mg/kg/injection, schedule: Q01DX009 (ip), vehicle: Klucel (hydroxypropylcellulose) (HPC) 124 % of control

COC(OC)c1cc(=O)[nH]cn1
inactive: [17] 94 % of control | [18] 106 % of control | [19] 107 % of control

Oc1ccc(O)c(-c2ccccc2)c1
inactive: [6] 93 % of control | [7] 101 % of control

CSc1ccc(OC(=O)Nc2ccccc2C)cc1
inactive: [20] 95 % of control | [21] 106 % of control | dose: 400.0 mg/kg/injection, schedule: Q04DX002 (ip), vehicle: Klucel (hydroxypropylcellulose) (HPC) 114 % of control

Cc1c2ccn(CCCCCCCCn3ccc4c(C)c5nc6ccccc6c5c(C)c4c3)cc2c(C)c2c1nc1ccccc12
inactive: dose: 0.78 mg/kg/injection, schedule: Q04DX003 (ip), vehicle: other 98 % of control | dose: 1.56 mg/kg/injection, schedule: Q04DX003 (ip), vehicle: other 104 % of control | dose: 3.13 mg/kg/injection, schedule: Q04DX003 (ip), vehicle: other 104 % of control | dose: 6.25 mg/kg/injection, schedule: Q04DX003 (ip), vehicle: other 112 % of control | dose: 12.5 mg/kg/injection, schedule: Q04DX003 (ip), vehicle: other 118 % of control | dose: 25.0 mg/kg/injection, schedule: Q04DX003 (ip), vehicle: other 115 % of control | dose: 50.0 mg/kg/injection, schedule: Q04DX003 (ip), vehicle: other 98 % of control | dose: 100.0 mg/kg/injection, schedule: Q04DX003 (ip), vehicle: other 109 % of control

c1ccc2c(c1)ccc1c3c(oc12)CCCC3
inactive: [10] 116 % of control | [11] 103 % of control | [12] 105 % of control

CC1(C)NC(=O)C2CC21C (stereo not given)
inactive: dose: 100.0 mg/kg/injection, schedule: Q04DX002 (ip), vehicle: saline 91 % of control

S=C(Nc1ccccc1)Nc1cccc2ccccc12
inactive: [9] 97 % of control | [10] 103 % of control | [17] 105 % of control | [20] 87 % of control | [11] 97 % of control | [18] 105 % of control | [21] 87 % of control | [12] 94 % of control | [19] 112 % of control

CCCCCCCCCCOc1ccccc1C(=O)NCCN1CCCC1
inactive: dose: 15.0 mg/kg/injection, schedule: Q01DX015 (ip), vehicle: saline 88 % of control | dose: 30.0 mg/kg/injection, schedule: Q01DX015 (ip), vehicle: saline 91 % of control | dose: 60.0 mg/kg/injection, schedule: Q01DX015 (ip), vehicle: saline 91 % of control | dose: 120.0 mg/kg/injection, schedule: Q01DX015 (ip), vehicle: saline 88 % of control

CCN(CC)CCOC(=O)c1[nH]cnc1N
inactive: [10] 96 % of control | [11] 104 % of control | [12] 96 % of control

CCOC(Nc1ccccc1[N+](=O)[O-])C(=O)c1ccccc1 (stereo not given)
inactive: [10] 91 % of control | [11] 86 % of control | [12] 89 % of control

CCN(CC)CCSSCCN(CC)CC.[Cl][Mn][Cl]
inactive: [10] 103 % of control

COc1ccc(C=NC(C)(C)CO)cc1OC
inactive: dose: 100.0 mg/kg/injection, schedule: Q01DX001 (ip), vehicle: steriod suspending solution 108 % of control | dose: 200.0 mg/kg/injection, schedule: Q01DX001 (ip), vehicle: steriod suspending solution 103 % of control | dose: 400.0 mg/kg/injection, schedule: Q01DX001 (ip), vehicle: steriod suspending solution 101 % of control

O=C(CNC(=O)c1ccc(Cl)cc1Cl)N/N=C/c1ccc(Cl)c(Cl)c1
inactive: dose: 25.0 mg/kg/injection, schedule: Q01DX009 (ip), vehicle: saline with Tween-80 95 % of control | dose: 50.0 mg/kg/injection, schedule: Q01DX009 (ip), vehicle: saline with Tween-80 91 % of control | [13] 88 % of control

COc1ccc(/C=C2\CN(CCC(=O)O)C(=O)C2=O)cc1
inactive: [10] 103 % of control | [2] 98 % of control | [11] 98 % of control | [4] 98 % of control | [12] 98 % of control | dose: 400.0 mg/kg/injection, schedule: Q04DX003 (ip), vehicle: saline 98 % of control

CCOC(=O)c1cnc(=O)n(Cc2ccccc2)c1N
inactive: dose: 100.0 mg/kg/injection, schedule: Q04DX002 (ip), vehicle: other 98 % of control | dose: 200.0 mg/kg/injection, schedule: Q04DX002 (ip), vehicle: other 95 % of control | dose: 400.0 mg/kg/injection, schedule: Q04DX002 (ip), vehicle: other 98 % of control

From PubChem BioAssay AID248 (DTP/NCI, 2004)
